# Laboratory results published in US8445492B2, “Method for inhibiting growth of cancer cells and cell telomere and diseases of cell proliferation by using heteroannelated anthraquinone derivative compounds” (National Defense Medical Center, priority 2008, dated 2013).
# Read-outs that look alike come from different tables or passages of the source.
# Tests used:
# HOP-62 [1] = assay: in vitro test at 1.0×10^−5 M, Non-small cell lung cancer cell; type: cell-based; details: 1.0×10^−5 molal concentration (M)
# HCC-2998 = assay: in vitro test at 1.0×10^−5 M, Colorectal cancer cell; type: cell-based; details: 1.0×10^−5 molal concentration (M)
# HS 578T = assay: in vitro test at 1.0×10^−5 M, Breast cancer cell; type: cell-based; details: 1.0×10^−5 molal concentration (M)
# LOX IMV1 = assay: in vitro test at 1.0×10^−5 M, Skin cancer cell; type: cell-based; details: 1.0×10^−5 molal concentration (M)
# [2] = system: different cancer cell lines; assay: in vitro test at 1.0×10^−5 M, summary over the cell lines; type: cell-based; details: 1.0×10^−5 molal concentration (M)
# CCRF-CEM [3] = system: CCRF-CEM
# HL-60(TB) [4] = system: HL-60(TB)
# K-562 [5] = system: K-562
# RPMI-8226 [6] = system: RPMI-8226
# A549/ATCC [7] = system: A549/ATCC
# EKVX [8] = system: EKVX
# HOP-62 [9] = system: HOP-62
# HOP-92 [10] = system: HOP-92
# NCI-H522 [11] = system: NCI-H522
# CCRF-CEM [12] = assay: cells; details: Homo sapiens
# HL-60(TB) [13] = assay: cells; details: Homo sapiens
# K-562 [14] = assay: cells; details: Homo sapiens
# PC-3 [15] = system: PC-3
# DU-145 [16] = system: DU-145
# RPMI-8226 [17] = assay: cells; details: Homo sapiens
# A549/ATCC [18] = assay: cells; details: Homo sapiens
# EKVX [19] = assay: cells; details: Homo sapiens
# HOP-62 [20] = assay: cells; details: Homo sapiens
# HOP-92 [21] = assay: cells; details: Homo sapiens
# NCI-H522 [22] = assay: cells; details: Homo sapiens
# PC-3 [23] = assay: cells; details: Homo sapiens
# DU-145 [24] = assay: cells; details: Homo sapiens
smiles,measurement,setting,value
"O=C1c2ccccc2C(=O)c2c1ccc1nsnc21 [No. 22, Anthra[2,1-c][1,2,5]thiadiazole-6,11-dione]",inhibition effect on cancer cell line (Table 2 value),HOP-62 [1],−100.00
same,inhibition effect on cancer cell line (Table 2 value),HCC-2998,−50.00
same,inhibition effect on cancer cell line (Table 2 value),HS 578T,−7.40
same,inhibition effect on cancer cell line (Table 2 value),LOX IMV1,−50.6
same,Mean,[2],2.68
same,TGI,CCRF-CEM [3]; CCRF-CEM,>1.00E−4
same,Percent Growth,CCRF-CEM [3]; Log10 Concentration −4.0,2%
same,Percent Growth,CCRF-CEM [3]; Log10 Concentration −5.0,2%
same,Percent Growth,CCRF-CEM [3]; Log10 Concentration −6.0,74%
same,Percent Growth,CCRF-CEM [3]; Log10 Concentration −7.0,90%
same,Percent Growth,CCRF-CEM [3]; Log10 Concentration −8.0,97%
same,TGI,HL-60(TB) [4]; HL-60(TB),5.13E−6
same,Percent Growth,HL-60(TB) [4]; Log10 Concentration −4.0,−43%
same,Percent Growth,HL-60(TB) [4]; Log10 Concentration −5.0,−38%
same,Percent Growth,HL-60(TB) [4]; Log10 Concentration −6.0,93%
same,Percent Growth,HL-60(TB) [4]; Log10 Concentration −7.0,102%
same,Percent Growth,HL-60(TB) [4]; Log10 Concentration −8.0,103%
same,TGI,K-562 [5]; K-562,4.92E−5
same,Percent Growth,K-562 [5]; Log10 Concentration −4.0,−8%
same,Percent Growth,K-562 [5]; Log10 Concentration −5.0,19%
same,Percent Growth,K-562 [5]; Log10 Concentration −6.0,83%
same,Percent Growth,K-562 [5]; Log10 Concentration −7.0,96%
same,Percent Growth,K-562 [5]; Log10 Concentration −8.0,101%
same,Percent Growth,MOLT-4; Log10 Concentration −4.0,−38%
same,Percent Growth,MOLT-4; Log10 Concentration −5.0,−40%
same,Percent Growth,MOLT-4; Log10 Concentration −6.0,73%
same,Percent Growth,MOLT-4; Log10 Concentration −7.0,99%
same,Percent Growth,MOLT-4; Log10 Concentration −8.0,97%
same,TGI,MOLT-4; MOLT-4,4.43E−6
same,Percent Growth,RPMI-8226 [6]; Log10 Concentration −4.0,−20%
same,Percent Growth,RPMI-8226 [6]; Log10 Concentration −6.0,61%
same,Percent Growth,RPMI-8226 [6]; Log10 Concentration −7.0,94%
same,Percent Growth,RPMI-8226 [6]; Log10 Concentration −8.0,100%
same,TGI,RPMI-8226 [6]; RPMI-8226,9.91E−6
same,TGI,A549/ATCC [7]; A549/ATCC,5.94E−6
same,Percent Growth,A549/ATCC [7]; Log10 Concentration −4.0,−18%
same,Percent Growth,A549/ATCC [7]; Log10 Concentration −5.0,−27%
same,Percent Growth,A549/ATCC [7]; Log10 Concentration −6.0,92%
same,Percent Growth,A549/ATCC [7]; Log10 Concentration −7.0,93%
same,Percent Growth,A549/ATCC [7]; Log10 Concentration −8.0,104%
same,TGI,EKVX [8]; EKVX,7.03E−6
same,Percent Growth,EKVX [8]; Log10 Concentration −4.0,−62%
same,Percent Growth,EKVX [8]; Log10 Concentration −5.0,−15%
same,Percent Growth,EKVX [8]; Log10 Concentration −6.0,84%
same,Percent Growth,EKVX [8]; Log10 Concentration −7.0,89%
same,Percent Growth,EKVX [8]; Log10 Concentration −8.0,96%
same,TGI,HOP-62 [9]; HOP-62,1.21E−5
same,Percent Growth,HOP-62 [9]; Log10 Concentration −4.0,−49%
same,Percent Growth,HOP-62 [9]; Log10 Concentration −5.0,4%
same,Percent Growth,HOP-62 [9]; Log10 Concentration −6.0,107%
same,Percent Growth,HOP-62 [9]; Log10 Concentration −7.0,107%
same,Percent Growth,HOP-62 [9]; Log10 Concentration −8.0,107%
same,TGI,HOP-92 [10]; HOP-92,9.84E−6
same,Percent Growth,HOP-92 [10]; Log10 Concentration −4.0,−27%
same,Percent Growth,HOP-92 [10]; Log10 Concentration −5.0,−1%
same,Percent Growth,HOP-92 [10]; Log10 Concentration −6.0,94%
same,Percent Growth,HOP-92 [10]; Log10 Concentration −7.0,88%
same,Percent Growth,HOP-92 [10]; Log10 Concentration −8.0,95%
same,Percent Growth,NCI-H226; Log10 Concentration −4.0,−5%
same,Percent Growth,NCI-H226; Log10 Concentration −5.0,63%
same,Percent Growth,NCI-H226; Log10 Concentration −6.0,75%
same,Percent Growth,NCI-H226; Log10 Concentration −7.0,95%
same,Percent Growth,NCI-H226; Log10 Concentration −8.0,97%
same,TGI,NCI-H226; NCI-H226,8.53E−5
same,Percent Growth,NCI-H460; Log10 Concentration −4.0,−58%
same,Percent Growth,NCI-H460; Log10 Concentration −5.0,−53%
same,Percent Growth,NCI-H460; Log10 Concentration −6.0,87%
same,Percent Growth,NCI-H460; Log10 Concentration −7.0,97%
same,Percent Growth,NCI-H460; Log10 Concentration −8.0,100%
same,TGI,NCI-H460; NCI-H460,4.19E−6
same,Percent Growth,NCI-H522 [11]; Log10 Concentration −4.0,−18%
same,Percent Growth,NCI-H522 [11]; Log10 Concentration −5.0,6%
same,Percent Growth,NCI-H522 [11]; Log10 Concentration −6.0,90%
same,Percent Growth,NCI-H522 [11]; Log10 Concentration −7.0,103%
same,Percent Growth,NCI-H522 [11]; Log10 Concentration −8.0,103%
same,TGI,NCI-H522 [11]; NCI-H522,1.78E−5
same,GI50,CCRF-CEM [12],2.18 µM
same,CC50,CCRF-CEM [12]; read-out: LC50,> 100 µM
same,GI50,HL-60(TB) [13]; HL-60,2.14 µM
same,CC50,"HL-60(TB) [13]; HL-60, read-out: LC50",> 100 µM
same,GI50,K-562 [14]; K562,3.23 µM
same,CC50,"K-562 [14]; K562, read-out: LC50",> 100 µM
same,Percent Growth,PC-3 [15]; Log10 Concentration −4.0,4%
same,Percent Growth,PC-3 [15]; Log10 Concentration −5.0,11%
same,Percent Growth,PC-3 [15]; Log10 Concentration −6.0,86%
same,Percent Growth,PC-3 [15]; Log10 Concentration −7.0,92%
same,Percent Growth,PC-3 [15]; Log10 Concentration −8.0,96%
same,TGI,PC-3 [15]; PC-3,>1.00E−4
same,TGI,DU-145 [16]; DU-145,1.95E−5
same,Percent Growth,DU-145 [16]; Log10 Concentration −4.0,−100%
same,Percent Growth,DU-145 [16]; Log10 Concentration −5.0,41%
same,Percent Growth,DU-145 [16]; Log10 Concentration −6.0,110%
same,Percent Growth,DU-145 [16]; Log10 Concentration −7.0,114%
same,Percent Growth,DU-145 [16]; Log10 Concentration −8.0,110%
same,GI50,RPMI-8226 [17]; RPMI-8226,1.53 µM
same,CC50,"RPMI-8226 [17]; RPMI-8226, read-out: LC50",> 100 µM
same,GI50,A549/ATCC [18]; A549,2.25 µM
same,CC50,"A549/ATCC [18]; A549, read-out: LC50",> 100 µM
same,GI50,EKVX [19],2.19 µM
same,CC50,EKVX [19]; read-out: LC50,56.5 µM
same,GI50,HOP-62 [20]; HOP-62,3.59 µM
same,CC50,"HOP-62 [20]; HOP-62, read-out: LC50",> 100 µM
same,GI50,HOP-92 [21]; HOP-92,2.91 µM
same,CC50,"HOP-92 [21]; HOP-92, read-out: LC50",> 100 µM
same,GI50,NCI-H522 [22]; NCI-H522,3.01 µM
same,CC50,"NCI-H522 [22]; NCI-H522, read-out: LC50",> 100 µM
same,GI50,PC-3 [23]; PC-3,3.03 µM
same,CC50,"PC-3 [23]; PC-3, read-out: LC50",> 100 µM
same,GI50,DU-145 [24]; DU-145,7.41 µM
same,CC50,"DU-145 [24]; DU-145, read-out: LC50",44.2 µM
